Source: patent US11655208B2, “1-carboxy-2-hydroxy-3-iminopropane and extraction method thereof” (Jiangnan University, priority 2020, dated 2023)

What was measured:
Format in all cases: in vivo
male ICR mice [1] = test: Open field test; conditions: for Movement speed / Movement time / Stay time in the middle area: mice, gavage for 14 days, within 10 minutes, x ± s
Procedure: (§1) 30 SPF-level 4-week-old male ICR (Institute of Cancer Research) mice were adaptively reared for 1 week and then randomly divided into 3 groups with 10 mice in each group. An experimental group and a blank group were given an aqueous solution of the 1-carboxy-2-hydroxy-3-iminopropane and water at a dose of 1.0 g/kg·bw by gavage respectively, and a positive control group was given an aqueous solution of estazolam at a dose of 2 mg/kg·bw by the gavage. After continuous gavage for 14 days, tests were carried out. The tests were carried out around 25° C. in a quiet environment.
An open field maze of 4 units (each unit 50 cm×50 cm×38 cm) consisting of 4 activity spaces were used in the test, and 4 mice were tested each time. The open field spaces were cleaned with alcohol before the test, and the test was started 30 minutes after a sample group was administered (15 minutes after a positive control group was administered). During the test, tails of the mice were gently grasped, and the mice were placed in the middle of each unit of the open field maze for adaption for 5 minutes. A software start button was clicked to activate software for tracking moving paths of the mice. With an average movement speed, a movement time and a stay time in the middle area within 10 minutes as indexes, data analysis was conducted by using EthoVision XT 11 software. After each test was completed, urine and feces were cleaned, and a bottom and an inner wall of the maze were sprayed with 5-10% ethanol and then wiped with paper to remove an odor left by the mice. Then, a next group of the mice was tested, and influence of the odor and residue on the next group of the mice was avoided.

male ICR mice [2] = test: Direct sleep observation test; conditions: for 12 h sleep duration period: mice, sleep time within 12 hours after the gavage, x ± s
Procedure: as §1
After the open field test was completed, a direct sleep observation test was carried out the next night. 30 minutes after the gavage, a surveillance camera was used for observation, and a sleep time of the mice in each group within 12 hours after the gavage was recorded.

male ICR mice [3] = test: Pentobarbital sodium induced sleep test; parameters: Sleep duration period: unit not given here
Procedure: as §1
Before the test, a preliminary test was carried out to determine a dose of pentobarbital sodium by intraperitoneal injection. After the intraperitoneal injection, the dose when all mice fell asleep for a moderate time was used as a standard, and the test was carried out with this dose (50 mg/kg·bw). 30 minutes after the last gavage, the mice were given the pentobarbital sodium by intraperitoneal injection to induce sleep. The time from injection of the pentobarbital sodium to disappearance of a righting reflex was recorded as a sleep latency period of the mice. The time from the disappearance of the righting reflex to reappearance of the righting reflex was recorded as a […] of the mice. Whether or not the latency period of each group was shortened and whether or not the sleep time was prolonged were observed.

[4] = mice, pentobarbital sodium 50 mg/kg·bw i.p. 30 minutes after the last gavage, x ± s
[5] = pentobarbital sodium induced sleep, vs blank group, P<0.05

SMILES	Movement speed (male ICR mice [1])	Movement time (male ICR mice [1])	Stay time in the middle area (male ICR mice [1])	12 h sleep duration period (male ICR mice [2])	Latency period (male ICR mice [3]; [4])	effect on stay time in the middle area of the mice (in words) (male ICR mice [1]; vs blank group, P<0.01)	effect on movement speed of the mice (in words) (male ICR mice [1]; vs blank group, P<0.05)	effect on movement time of the mice (in words) (male ICR mice [1]; vs blank group, P<0.05)	total sleep duration period within 12 hours (in words) (male ICR mice [2]; vs blank group, P<0.05)	Sleep duration period (male ICR mice [3]; [4])	sleep duration period prolonged by (male ICR mice [3]; [5])	sleep latency period shortened by (male ICR mice [3]; [5])
Clc1ccc2c(c1)C(c1ccccc1)=NCc1nncn1-2 [estazolam, reference compound]	4.60 ± 0.96 cm/s	325.85 ± 51.64 s	20.63 ± 9.01 %	404.10 ± 34.03 min	2.81 ± 0.57 s	–	–	–	–	–	–	–
N=CC(O)CC(=O)O (centres unmarked) [1-carboxy-2-hydroxy-3-iminopropane]	4.66 ± 1.14 cm/s	333.76 ± 56.84 s	17.81 ± 5.14 %	374.33 ± 24.48 min	3.60 ± 0.368 s	significantly increased	significantly reduced	significantly reduced	longer than that of the blank group	34.73 ± 12.71	61.49%	24.62%
